Consider 13 compounds from US20170210778A1, “NOVEL COMPOUNDS” (The Provost, Fellows, Foundation Scholars, and the other …, priority 2014, published 2017).

One experiment deals with T1, murine NOD1 (Mus musculus, UniProt Q8BHB0).
T1 construct: expressed in transfected cells; host or cells: HEK293
T1 sequence (Q8BHB0 1-953): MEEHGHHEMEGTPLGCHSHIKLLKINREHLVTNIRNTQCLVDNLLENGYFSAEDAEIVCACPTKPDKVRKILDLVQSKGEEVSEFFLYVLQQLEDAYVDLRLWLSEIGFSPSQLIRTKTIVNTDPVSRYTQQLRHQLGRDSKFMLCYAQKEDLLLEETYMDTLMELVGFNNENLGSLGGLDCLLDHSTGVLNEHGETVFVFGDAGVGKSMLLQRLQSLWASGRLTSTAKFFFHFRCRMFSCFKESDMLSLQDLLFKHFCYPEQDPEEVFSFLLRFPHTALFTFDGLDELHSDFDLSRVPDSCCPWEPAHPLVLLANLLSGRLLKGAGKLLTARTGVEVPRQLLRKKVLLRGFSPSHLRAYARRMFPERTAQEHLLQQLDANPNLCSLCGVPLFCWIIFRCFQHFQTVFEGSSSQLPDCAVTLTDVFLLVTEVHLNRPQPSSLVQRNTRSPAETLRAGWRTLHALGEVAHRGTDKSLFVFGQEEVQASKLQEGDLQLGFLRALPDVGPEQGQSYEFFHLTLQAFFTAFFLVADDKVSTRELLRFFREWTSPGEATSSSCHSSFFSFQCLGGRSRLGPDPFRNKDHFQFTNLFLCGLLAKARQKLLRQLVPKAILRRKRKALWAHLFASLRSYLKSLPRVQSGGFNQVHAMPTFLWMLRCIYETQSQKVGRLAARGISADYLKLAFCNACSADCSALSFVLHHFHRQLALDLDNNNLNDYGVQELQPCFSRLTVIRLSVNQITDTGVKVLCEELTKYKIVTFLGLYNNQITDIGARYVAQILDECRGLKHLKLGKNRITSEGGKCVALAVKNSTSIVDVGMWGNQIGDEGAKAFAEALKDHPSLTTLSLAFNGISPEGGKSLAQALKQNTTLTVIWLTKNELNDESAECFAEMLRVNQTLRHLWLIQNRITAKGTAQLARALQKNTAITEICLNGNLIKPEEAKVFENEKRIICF
In words: NOD1 functional agonist assay, 293mNOD1-SEAP reporter cells. Type of experiment: cell-based. The note with it: 293mNOD1 cells, OD above 3*O.D of negative control. From the text: (§1) HEK293 cells were stably transfected with plasmid for the overexpression of the NOD1 genes and a reporter plasmid expressing a secreted embryonic alkaline phosphatase (SEAP) gene under the control of a promoter inducible by the transcription factors NF-κB and AP-1. These cells are referred herein as 293hNOD1-SEAP (for cells overexpressing the human NOD1 gene) and 293mNOD1-SEAP (for cells overexpressing the murine NOD1 gene). Upon NOD1 stimulation, these cells induce the activation of NF-κB and AP-1 and subsequently the secretion of SEAP. The reporter protein is easily detectable and measurable when using QUANTI-Blue™ (InvivoGen, San Diego, Calif.), a medium that turns purple/blue in the presence of SEAP.
(§2) The biological activity of the compounds of the invention tested using 293hNOD1 and 293mNOD1 cells. SEAP expression was measured using the commercially available SEAP detection kit (HEK-Blue™ Detection, InvivoGen). The SEAP activity in cells was quantified using the microplate reader (FLUOStar OPTIMA, BMG laboratories), the absorbance values were read using filter with excitation at 620 nm and emission at 655 nm. The results provided in Table 2 were expressed as the concentration were a significant mean optical density (OD) can be observed (above 3*O.D of negative control). As a positive control, the NOD1 pathway was stimulated with commercially available iE-DAP (InvivoGen) and C12-iE-DAP (an acylated derivative of DAP; InvivoGen). As a negative control endotoxin-free water was used. Additionally, 293 cells expressing the SEAP gene but not the NOD1 gene were used as a control.

The next experiment concerns the target T2, human NOD1 (Homo sapiens, UniProt Q9Y239).
T2 construct: expressed in transfected cells; host or cells: HEK293
T2 sequence (Q9Y239 1-953): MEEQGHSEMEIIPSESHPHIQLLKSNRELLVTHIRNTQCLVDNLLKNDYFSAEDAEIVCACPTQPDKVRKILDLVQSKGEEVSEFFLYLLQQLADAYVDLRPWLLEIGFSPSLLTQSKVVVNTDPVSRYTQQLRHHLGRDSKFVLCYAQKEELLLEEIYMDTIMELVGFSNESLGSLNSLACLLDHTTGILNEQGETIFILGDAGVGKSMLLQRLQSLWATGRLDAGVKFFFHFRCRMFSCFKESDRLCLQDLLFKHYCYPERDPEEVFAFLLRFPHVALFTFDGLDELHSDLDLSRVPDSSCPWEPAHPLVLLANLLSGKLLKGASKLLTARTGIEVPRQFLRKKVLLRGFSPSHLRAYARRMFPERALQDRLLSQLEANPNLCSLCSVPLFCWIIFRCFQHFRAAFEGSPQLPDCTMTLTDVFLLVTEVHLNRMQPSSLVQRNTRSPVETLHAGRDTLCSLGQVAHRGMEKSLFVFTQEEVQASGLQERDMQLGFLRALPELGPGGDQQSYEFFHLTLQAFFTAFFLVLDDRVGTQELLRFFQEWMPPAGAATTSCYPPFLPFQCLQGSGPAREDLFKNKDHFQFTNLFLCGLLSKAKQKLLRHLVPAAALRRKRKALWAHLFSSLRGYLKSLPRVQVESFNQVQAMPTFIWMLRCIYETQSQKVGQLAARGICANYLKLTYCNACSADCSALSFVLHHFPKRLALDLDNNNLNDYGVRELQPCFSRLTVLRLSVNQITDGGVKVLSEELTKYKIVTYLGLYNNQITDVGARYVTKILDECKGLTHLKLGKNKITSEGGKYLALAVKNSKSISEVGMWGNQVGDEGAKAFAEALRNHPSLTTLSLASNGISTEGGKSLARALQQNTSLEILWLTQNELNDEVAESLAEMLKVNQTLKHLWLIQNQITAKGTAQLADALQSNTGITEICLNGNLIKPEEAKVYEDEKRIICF
Nature of the experiment: NOD1 functional agonist assay, 293hNOD1-SEAP reporter cells. The note with it: 293hNOD1 cells, OD above 3*O.D of negative control. The experiment is classed as cell-based.
Source text: as §1, §2

For `CCCCCCC(=O)N[C@H](CCC(=O)N[C@H](CSC[C@H](N)C(=O)O)C(=O)NCC(=O)O)C(=O)O` [Example 23, N^5-((S)-3-(((R)-2-amino-2-carboxyethyl)thio)-1-((carboxymethyl)amino)-1-oxopropan-2-yl)-N^2-heptanoyl-D-glutamine], on murine NOD1, the “mNod1: concentration where a significant mean optical density (OD) can be observed” value stood at 1 µg/mL. The “hNod1: concentration where a significant mean optical density (OD) can be observed” value on human NOD1 came out at 1 µg/mL.
As for `CC[C@@H](C)[C@H](N)C(=O)N[C@H](CCC(=O)N[C@H](CSC[C@H](N)C(=O)O)C(=O)O)C(=O)O` [Example 7, N^2-(L-alloisoleucyl)-N^5-((S)-2-(((R)-2-amino-2-carboxyethyl)thio)-1-carboxyethyl)-D-glutamine], on murine NOD1, the “mNod1: concentration where a significant mean optical density (OD) can be observed” value was determined as 1 µg/mL. In addition, the “hNod1: concentration where a significant mean optical density (OD) can be observed” value at human NOD1 was determined as 0.1 µg/mL.
For `N[C@@H](CSC[C@@H](NC(=O)CC[C@@H](NC(=O)[C@@H](N)Cc1ccccc1)C(=O)O)C(=O)O)C(=O)O` [Example 9, N^2-(L-phenylalanyl)-N^5-((S)-2-(((R)-2-amino-2-carboxyethyl)thio)-1-carboxyethyl)-D-glutamine] the same measures were 10 µg/mL and 10 µg/mL.
Regarding `CCCCCCCCCCCCCC(=O)N[C@H](CCC(=O)N[C@H](CSC[C@H](N)C(=O)O)C(=O)N[C@H](C)C(=O)O)C(=O)O` [Example 17, N^5-((S)-3-(((R)-2-amino-2-carboxyethyl)thio)-1-(((R)-1-carboxyethyl)amino)-1-oxopropan-2-yl)-N^2-tetradecanoyl-D-glutamine], at murine NOD1, the “mNod1: concentration where a significant mean optical density (OD) can be observed” value was determined as 0.001 µg/mL. Also, the “hNod1: concentration where a significant mean optical density (OD) can be observed” value at human NOD1 came out at 0.01 µg/mL.
For `CCCCCCCCCCCCCC(=O)N[C@H](C(=O)N[C@H](CCC(=O)N[C@H](CSC[C@H](N)C(=O)O)C(=O)O)C(=O)O)C(C)C` [Example 12, N^5-((S)-2-(((R)-2-amino-2-carboxyethyl)thio)-1-carboxyethyl)-N^2-(tetradecanoyl-L-valyl)-D-glutamine], in that order: 0.1 µg/mL and 0.001 µg/mL.
For `CCCCCCC(=O)N[C@@H](C)C(=O)N[C@H](CCC(=O)N[C@H](CSC[C@H](N)C(=O)O)C(=O)N[C@H](C)C(=O)O)C(=O)O` [Example 19, N^5-((S)-3-(((R)-2-amino-2-carboxyethyl)thio)-1-(((R)-1-carboxyethyl)amino)-1-oxopropan-2-yl)-N^2-(heptanoyl-L-alanyl)-D-glutamine] the same measures were 0.1 µg/mL and 0.1 µg/mL.
Consider `C[C@H](N)C(=O)N[C@H](CCC(=O)N[C@H](CSC[C@H](N)C(=O)O)C(=O)N[C@H](C)C(=O)O)C(=O)O` [Example 18, N^2-(L-alanyl)-N^5-((S)-3-(((R)-2-amino-2-carboxyethyl)thio)-1-(((R)-1-carboxyethyl)amino)-1-oxopropan-2-yl)-D-glutamine], for which the “mNod1: concentration where a significant mean optical density (OD) can be observed” value at murine NOD1 amounted to 1 µg/mL. For the same compound, the “hNod1: concentration where a significant mean optical density (OD) can be observed” value on human NOD1 came out at 1 µg/mL.
In the case of `CCCCCCCCCCCC(=O)N[C@H](CCC(=O)N[C@H](CSC[C@H](N)C(=O)O)C(=O)NCC(=O)O)C(=O)O` [Example 24, N^5-((S)-3-(((R)-2-amino-2-carboxyethyl)thio)-1-((carboxymethyl)amino)-1-oxopropan-2-yl)-N^2-dodecanoyl-D-glutamine], the “mNod1: concentration where a significant mean optical density (OD) can be observed” value at murine NOD1 was 0.01 µg/mL. The “hNod1: concentration where a significant mean optical density (OD) can be observed” value on human NOD1 stood at 0.01 µg/mL.
In the case of `CCCCCCC(=O)N[C@H](CCC(=O)N[C@H](CSC[C@H](N)C(=O)O)C(=O)O)C(=O)O` [Example 2, N^5-((S)-2-(((R)-2-amino-2-carboxyethyl)thio)-1-carboxyethyl)-N^2-heptanoyl-D-glutamine], the “mNod1: concentration where a significant mean optical density (OD) can be observed” value on murine NOD1 is 1 µg/mL. In addition, at human NOD1, the “hNod1: concentration where a significant mean optical density (OD) can be observed” value amounted to 0.1 µg/mL.
For `C[C@@H](NC(=O)[C@@H](CSC[C@H](N)C(=O)O)NC(=O)CC[C@@H](N)C(=O)O)C(=O)O` [Example 14, N^5-((S)-3-(((R)-2-amino-2-carboxyethyl)thio)-1-(((R)-1-carboxyethyl)amino)-1-oxopropan-2-yl)-D-glutamine], the “mNod1: concentration where a significant mean optical density (OD) can be observed” value at murine NOD1 is 10 µg/mL. In addition, at human NOD1, the “hNod1: concentration where a significant mean optical density (OD) can be observed” value stood at 1 µg/mL.
Take `CC(C)C[C@H](N)C(=O)N[C@H](CCC(=O)N[C@H](CSC[C@H](N)C(=O)O)C(=O)O)C(=O)O` [Example 6, N^2-(L-leucyl)-N^5-((S)-2-(((R)-2-amino-2-carboxyethyl)thio)-1-carboxyethyl)-D-glutamine]: the “mNod1: concentration where a significant mean optical density (OD) can be observed” value on murine NOD1 turned out to be 1 µg/mL. For the same compound, the “hNod1: concentration where a significant mean optical density (OD) can be observed” value at human NOD1 was 0.1 µg/mL.
For `CC(C)[C@H](N)C(=O)N[C@H](CCC(=O)N[C@H](CSC[C@H](N)C(=O)O)C(=O)O)C(=O)O` [Example 8, N^2-(L-valyl)-N^5-((S)-2-(((R)-2-amino-2-carboxyethyl)thio)-1-carboxyethyl)-D-glutamine], in that order: 1 µg/mL and 0.1 µg/mL.
For `N[C@H](CCC(=O)N[C@H](CSC[C@H](N)C(=O)O)C(=O)NCC(=O)O)C(=O)O` [Example 22, N^5-((S)-3-(((R)-2-amino-2-carboxyethyl)thio)-1-((carboxymethyl)amino)-1-oxopropan-2-yl)-D-glutamine] the same measures were 10 µg/mL and 1 µg/mL.
